± gives the expanded uncertainty stated by the source.
Details: 101.33 kPa, Liquid; for speed of sound: Sing-around technique in a fixed-path interferometer; for mass density: Vibrating tube method

| speed of sound (288.15 K) [m/s] | mass density (288.15 K) [kg/m3] | speed of sound (293.15 K) [m/s] | mass density (293.15 K) [kg/m3] | speed of sound (298.15 K) [m/s] | mass density (298.15 K) [kg/m3] | speed of sound (303.15 K) [m/s] | mass density (303.15 K) [kg/m3] | speed of sound (308.15 K) [m/s] | mass density (308.15 K) [kg/m3] | SMILES |
| --- | --- | --- | --- | --- | --- | --- | --- | --- | --- | --- |
| 1285 ± 2.2 | 781.336 ± 0.61 | 1266.4 ± 2.2 | 777.632 ± 0.61 | 1247.6 ± 2.2 | 773.913 ± 0.6 | 1229 ± 2.2 | 770.183 ± 0.6 | 1210.4 ± 2.2 | 766.44 ± 0.6 | CCCCN(CCCC)CCCC [tributylamine] |
| 1289.2 ± 2.2 | 766.115 ± 2.1 | 1269.5 ± 2.2 | 762.022 ± 2.1 | 1246.7 ± 2.2 | 757.784 ± 2.1 | 1226.7 ± 2.2 | 752.284 ± 2 | 1207 ± 2.2 | 748.17 ± 2 | CCCCNCCCC [dibutylamine] |
| 1405.2 ± 2.2 | 936.901 ± 0.77 | 1388.1 ± 2.2 | 932.917 ± 0.76 | 1371.1 ± 2.2 | 928.926 ± 0.76 | 1354.3 ± 2.2 | 924.931 ± 0.75 | 1337.7 ± 2.2 | 920.933 ± 0.75 | CCCCCCOCCOCCO [2-(2-hexyloxyethoxy)ethanol] |
| 1296.1 ± 2.2 | 742.865 ± 0.58 | 1273.6 ± 2.2 | 738.096 ± 0.58 | 1250 ± 2.2 | 733.301 ± 0.57 | 1228.9 ± 2.2 | 728.477 ± 0.57 | 1205.7 ± 2.2 | 723.625 ± 0.56 | CCCCN [1-butanamine] |
